Measurements taken from PubChem BioAssay (NCI).
Values joined by “and” are separate entries in the source; they are usually repeats but may differ in a detail not shown here. Equal entries are not always repeated.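 Step 1: Grow cells in 96-well plates. Step 2: Expose to compound for 48 hours at 5 concentrations. Step 3: Interpolate endpoints linearly; if unreached, use highest concentration. GI50: concentration for 50% inhibition of growth. At the TGI there is no net growth.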

Tests used:
Assay in all cases: NCI anticancer screen, dose series, 48 h
SK-OV-3 ovarian = tested on: SK-OV-3 ovarian
A498 renal = tested on: A498 renal
SNB-75 CNS = tested on: SNB-75 CNS
LOX IMVI melanoma = tested on: LOX IMVI melanoma
SW-620 colon = tested on: SW-620 colon
M14 melanoma = tested on: M14 melanoma
NCI-H23 lung = tested on: NCI-H23 lung
786-0 renal = tested on: 786-0 renal
SR leukemia = tested on: SR leukemia
MDA-MB-435 = tested on: MDA-MB-435

| Structure (SMILES) | TGI (SK-OV-3 ovarian) | TGI (A498 renal) | TGI (SNB-75 CNS) | TGI (LOX IMVI melanoma) | TGI (SW-620 colon) | TGI (M14 melanoma) | TGI (NCI-H23 lung) | TGI (786-0 renal) | TGI (SR leukemia) | GI50 (SK-OV-3 ovarian) | GI50 (A498 renal) | GI50 (MDA-MB-435) | TGI (MDA-MB-435) | GI50 (SNB-75 CNS) | GI50 (LOX IMVI melanoma) | GI50 (SW-620 colon) | GI50 (M14 melanoma) | GI50 (786-0 renal) | GI50 (NCI-H23 lung) | GI50 (SR leukemia) |
| --- | --- | --- | --- | --- | --- | --- | --- | --- | --- | --- | --- | --- | --- | --- | --- | --- | --- | --- | --- | --- |
| Cc1cc2c(cc1C)[n+](=O)c(C(=O)C/C(=N/NC(=O)c1ccccc1O)C(=O)Nc1ccccc1C(C)C)c(C)n2[O-] | > 100 µM | > 100 µM | > 100 µM | > 100 µM | > 100 µM | > 100 µM | > 100 µM | > 100 µM | – | – | – | – | – | – | – | – | – | – | – | – |
| CCOC(=O)C1=C(C)Nc2ccccc2S1 | > 100 µM | > 100 µM | > 100 µM | > 100 µM | > 100 µM | > 100 µM | > 100 µM | > 100 µM | > 100 µM | – | – | – | – | – | – | – | – | – | – | – |
| O=C(c1ccc2ccccc2c1)c1c(C(F)(F)F)n([O-])c2cc(Cl)c(Cl)cc2[n+]1=O | 3.15 µM | 4.68 µM | 2.8 µM | 2.4 µM | 2.98 µM | 3.04 µM | – | 3.06 µM | – | 1.58 µM | 1.96 µM | 1.92 µM | 3.56 µM | 1.48 µM | 1.17 µM | 1.63 µM | 1.66 µM | 1.69 µM | – | – |
| C=C1CCC2C(/C=C(\C)CCC1O)OC(=O)C2C (stereo not drawn) | > 100 µM | – | > 100 µM | > 100 µM | > 100 µM | > 100 µM | > 100 µM | > 100 µM | > 100 µM | > 100 µM | – | > 100 µM | > 100 µM | > 100 µM | > 100 µM | > 100 µM | > 100 µM | > 100 µM | > 100 µM | > 100 µM |
| O=C(/C=C/c1ccc(Cl)cc1)c1ccc(Cl)cc1Cl | 14.5 µM | – | – | 5.62 µM | 6.31 µM | 24.2 µM | 12.4 µM | 15.8 µM | 50 µM | 6.84 µM | – | 9.11 µM | 24.3 µM | – | 1.15 µM | 1.88 µM | 10.9 µM | 7.05 µM | 4.55 µM | 2.31 µM |
| N#Cc1c(-c2cccs2)c2c(=S)[nH]c(=S)[nH]c2[nH]c1=S | > 100 µM | – | > 100 µM | 39.8 µM | 81 µM | > 100 µM | – | > 100 µM | > 100 µM | 46 µM | – | 41.1 µM | > 100 µM | > 100 µM | 18.2 µM | 32.8 µM | 57.5 µM | 36.4 µM | – | 29.3 µM |
| COc1ccc(C(=O)Nc2ncc(Cc3ccc(Cl)cc3)s2)cc1 | > 100 µM | 0.0848 µM | > 100 µM | > 100 µM | > 100 µM | > 100 µM | > 100 µM | > 100 µM | > 70.4 µM | 0.15 µM | 0.0216 µM | – | – | 0.0424 µM | 0.0628 µM | 0.0455 µM | 0.0422 µM | 0.0779 µM | 0.239 µM | 0.0375 µM |
| FC(F)(F)c1nc(-c2ccccc2Cl)[nH]c1C(F)(F)F | 2.45 µM | – | 5 µM | 1.23 µM | 6.63 µM | 4.83 µM | 2.03 µM | 4.73 µM | 1.68 µM | – | – | – | – | – | – | – | – | – | – | – |
| C#CCNC(=O)NC(CCCNC(=O)OCc1ccccc1)C(=O)OCc1ccccc1 (stereo not drawn) | > 100 µM | > 100 µM | > 100 µM | > 100 µM | > 100 µM | 50.6 µM | > 100 µM | > 100 µM | > 100 µM | – | – | – | – | – | – | – | – | – | – | – |
| COc1ccc(-c2cc(-c3cc(Cl)ccc3Cl)nc3[nH]c(-c4cc(F)c(Cl)cc4Cl)cc(=O)c23)cc1 | > 100 µM | – | > 100 µM | 34.4 µM | > 100 µM | 35.8 µM | 55.8 µM | 52 µM | – | 84.6 µM | – | 6.4 µM | > 100 µM | > 100 µM | 15.3 µM | 20 µM | 13.5 µM | 20.4 µM | 14.7 µM | – |
| COc1ccc2cc1Oc1ccc(cc1)C[C@H]1c3cc(c(OC)cc3CCN1C)Oc1c(OC)c(OC)cc3c1[C@H](C2)N(C)CC3 | 15.3 µM and 34 µM and > 100 µM | 13.2 µM and 19.2 µM and > 100 µM | 13.4 µM and 10.3 µM and > 100 µM | – | – | – | 20.5 µM and 27.4 µM and > 100 µM | 12.4 µM and 18 µM and > 100 µM | – | 17.6 µM | 5.98 µM | – | – | 2.77 µM | – | – | – | 5.1 µM | – | 0.0282 µM |
| CCOc1ccc(NC(=O)CC2Sc3ccccc3NC2=O)cc1 (stereo not drawn) | > 100 µM | > 100 µM | 95 µM | – | 33.5 µM | > 100 µM | > 100 µM | 39.3 µM | – | – | – | – | – | – | – | – | – | – | – | – |
| CC(=O)[CH-]C(=O)c1ccccc1.CC(=O)[CH-]C(=O)c1ccccc1.CCCCCCCCCCCCCCCCCC(=O)[O-].CCCCCCCCCCCCCCCCCC(=O)[O-].[Ti+4] | 37.9 µM | 68.5 µM | 25.5 µM | 35.9 µM | > 100 µM | 31.9 µM | > 100 µM | 33.2 µM | – | 21.9 µM | 25.7 µM | – | – | 11.7 µM | 18 µM | 33.3 µM | 17.4 µM | 18.8 µM | 36.1 µM | – |
| COC(=O)C(c1[nH]nc2ccccc12)C(C(=O)OC)c1[nH]nc2ccccc12 (stereo not drawn) | > 100 µM | > 100 µM | > 100 µM | > 100 µM | 33.7 µM | > 100 µM | > 100 µM | > 100 µM | > 100 µM | – | – | – | – | – | – | – | – | – | – | – |
| O=C(C#Cc1c[nH]c(=O)[nH]c1=O)c1ccccc1Cl | > 100 µM | 36.3 µM | 39.6 µM | 26.7 µM | 27.2 µM | 28.8 µM | 32.3 µM | 32 µM | – | – | – | – | – | – | – | – | – | – | – | – |
| CCOC(=O)C1(CC)CCCCC(=O)N1 (stereo not drawn) | > 100 µM | – | – | > 100 µM | > 100 µM | > 100 µM | > 100 µM | > 100 µM | – | – | – | – | – | – | – | – | – | – | – | – |
| O=C1/C(=C/c2ccc(F)cc2)CCOc2ccc([N+](=O)[O-])cc21 | 32.6 µM | 35 µM | – | > 100 µM | 4.04 µM | 5.61 µM | 4.51 µM | 3.5 µM | 6.35 µM | 17 µM | 17.4 µM | 1.94 µM | 7.26 µM | – | 35.9 µM | 1.35 µM | 2.22 µM | 1.8 µM | 1.95 µM | 2.07 µM |
